Experimental data from publication PMC4669759 (Cell Death & Disease, 2015).
pEC50, pIC50, pKi: −log10 of the molar value.

Assays:
BCL-XL = BCL-XL (Homo sapiens, UniProt Q07817); assay: TR-FRET binding affinity assay, BCL-XL
Procedure: TR-FRET-binding affinity assays were performed for BCL-2, BCL-XL, and MCL-1 in 4.52 mM monobasic potassium phosphate, 15.48 mM dibasic potassium phosphate, 1 mM sodium EDTA, 0.05% Pluronic F-68 detergent, 50 mM sodium chloride, and 1 mM DTT (pH 7.5) as described previously for BCL-XL.[6] For MCL-1 assays, GST-tagged MCL-1 (1 nM) was mixed with 100 nM f-Bak, 1 nM Tb-labeled anti-GST antibody, and compound at room temperature (RT) for 60 min. Fluorescence was measured on an Envision plate reader (Perkin-Elmer, Waltham, MA, USA) using a 340/35 nm excitation filter and 520/525 (f-Bak) and 495/510 nm (Tb-labeled anti-GST antibody) emission filters.

BCL-2–BAD complexes = biological target: T1, BCL-2–BAD complexes (Homo sapiens, UniProt P10415); assay: Live cell redistribution assay, eGFP-BCL-2 and mCherry-BAD, T-REx-293 cells; assay type: cell-based; conditions: 10 μM, 300 min
T1 construct: expressed in transfected cells; host or cells: T-REx-293, bicistronic expression module integrated at a single genomic site
T1 sequence (P10415 whole entry, one chain of several): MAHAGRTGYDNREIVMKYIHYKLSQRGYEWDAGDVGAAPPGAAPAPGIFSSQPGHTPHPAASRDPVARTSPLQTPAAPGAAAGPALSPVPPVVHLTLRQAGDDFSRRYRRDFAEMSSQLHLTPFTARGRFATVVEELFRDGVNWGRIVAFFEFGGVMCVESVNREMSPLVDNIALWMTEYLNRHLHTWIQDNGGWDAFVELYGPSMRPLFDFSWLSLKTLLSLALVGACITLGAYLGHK
From the text: To further rule out potential artifacts associated with lysate detergents that can influence interactions between BCL-2 family proteins,[47] we employed a recently described real-time imaging method to assess the effects on BCL-2 family complexes in live cells.[48] Briefly, interacting pairs of BCL-2 family proteins are expressed as fluorescent fusion proteins at stoichiometric levels from a bicistronic expression module integrated into a single site of the genome in T-REx-293 cells. […]
Figure 3 A-1210477 inhibits MCL-1-BIM complexes in live cells. […] The decrease in amount of mCherry-BH3 protein localized to the mitochondria was quantified as a function of time as described in the Materials and Methods, normalized to DMSO control, and fitted to a single exponential decay. Each data point represents the mean change in intensity calculated from 10 fields of view, with error bars indicating the S.E.M. (b) T-REx-293 cells stably expressing eGFP-MCL-1(3B) and mCherry-BIMS(2A)ΔC were treated with 50 μM ABT-737 or increasing concentrations (1–25 μM) A-1210477 for 100 min. The decrease in amount of mCherry-BIMS(2A)ΔC localized to the mitochondria was quantified as in panel (a). (c) Representative fluorescence microscopic images of T-REx-293 cells stably expressing eGFP-BCL-2 family and interacting mCherry-BH3-only proteins before and after 300 min of treatment with 10 μM A-1210477 or (d) ABT-737. […]

H23 cells = assay: Cell viability, H23 cells; assay type: cell-based, human
Procedure: Figure 5 A-1210477 kills MCL-1-dependent NSCLC cancer cell lines. NSCLC cell lines (a) H2110 or (c) H23 were transfected with a construct expressing the MCL1 CDS tagged with a Flag epitope or empty control vector. These cells were subsequently transfected with siRNAs targeting the MCL1 CDS, the MCL1 3′ UTRa or UTRb, or a scrambled control sequence. Cell viability was assessed 72 h later with MCL-1 and Flag immunoblots performed in parallel. (b) H2110 or (d) H23 cells were treated with increasing concentrations of A-1210477 for 72 h before assessing cell viability.
Adherent cell lines were seeded at 50 000 cells per well in 96-well plates and treated for 48 h with compounds diluted in half-log steps starting at 30 μM and ending at 0.001 μM. Multiple myeloma cell lines were seeded at 15 000–20 000 cells per well and treated similarly. Effects on proliferation and viability were determined using CellTiter-Glo reagent from Promega (Madison, WI, USA) according to the manufacturer's instructions. IC50 values were determined by non-linear regression analysis of the concentration response data.

Chain of BCL-XL (Q07817 whole entry): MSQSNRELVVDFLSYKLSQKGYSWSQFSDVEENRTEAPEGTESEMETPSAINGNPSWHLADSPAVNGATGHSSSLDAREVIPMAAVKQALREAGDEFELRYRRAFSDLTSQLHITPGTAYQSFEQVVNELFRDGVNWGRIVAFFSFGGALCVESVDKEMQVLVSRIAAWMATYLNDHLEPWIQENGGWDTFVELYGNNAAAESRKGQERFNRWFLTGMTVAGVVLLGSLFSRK

Cc1nn(C)c(COc2ccc(N3CCN(S(=O)(=O)N(C)C)CC3)cc2)c1-c1cccc2c(CCCOc3cccc4ccccc34)c(C(=O)O)n(CCN3CCOCC3)c12 [A-1210477]
pKi (BCL-XL): < 6.18
redistribution of mCherry-BAD associated with BCL-2 (BCL-2–BAD complexes): no effect
pIC50 (H23 cells; H23): > 5.00
pEC50 (H23 cells; H23, 72 h): 5.14
